US7118895B2, “Process for producing aglycon by using diglycosidase and flavor-improved food containing the aglycon and converting agent to be used in the process” (Amano Enzyme Inc., priority 2000, dated 2006)

Columns and labels:
[1] = test system: β-Glucosidase derived from A. niger; assay: Reactivity toward various isoflavone glycosides (HPLC); format: biochemical, Aspergillus niger; parameters: glucoside / aglycon: unit not given here; details: 55 °C, pH 4.0
Method in brief: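 Aglycone liberation was measured by reversed-phase HPLC (260 nm, calibration-curve quantitation) after ethanol extraction at 0, 1, 3 and 6 h. Reactions ran at 55° C, pH 4.0 (20 mM acetate), with each glycoside (from 2 mM methanol stock) and 0.75 AU/mL enzyme solution.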

Crude diglycosidase = assay: Examination of substrate concentration in the conversion into isoflavone aglycons by diglycosidase using soybean materials; format: biochemical, Penicillium multicolor IAM7153;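 also: percent of the isoflavone family total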
Method in brief: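 Reaction at 55° C, shaken, pH 4.0 (20 mM acetate), using crude diglycosidase from a 1.88 AU/mL enzyme solution on soy flour, soymilk, defatted soybean or soy protein concentrate at 2, 5, 10, 20 or 30% (w/v). Isoflavone aglycons quantified by HPLC of ethanol extracts at 0, 1, 3, 6 h.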

reactivity of β-glucosidase derived from Aspergillus niger (in words) [1]: act well
aglycon ([1]; Reaction time 0 h): 0
glucoside ([1]; Reaction time 0 h): 100
aglycon ([1]; Reaction time 1 h): 100
glucoside ([1]; Reaction time 1 h): 0
aglycon ([1]; Reaction time 3 h): 100
glucoside ([1]; Reaction time 3 h): 0
aglycon ([1]; Reaction time 6 h): 100
glucoside ([1]; Reaction time 6 h): 0
Decomposition efficiency: ratio of each glycoside/aglycon within its isoflavone family (Crude diglycosidase; concentrated soybean protein, substrate concentration 2%, heat treatment of enzyme no, reaction time 0 h): 50.5%
Decomposition efficiency: ratio of each glycoside/aglycon within its isoflavone family (Crude diglycosidase; concentrated soybean protein, substrate concentration 2%, heat treatment of enzyme no, reaction time 1 h): 1.2%
Decomposition efficiency: ratio of each glycoside/aglycon within its isoflavone family (Crude diglycosidase; concentrated soybean protein, substrate concentration 2%, heat treatment of enzyme no, reaction time 3 h): not detected
Decomposition efficiency: ratio of each glycoside/aglycon within its isoflavone family (Crude diglycosidase; concentrated soybean protein, substrate concentration 2%, heat treatment of enzyme no, reaction time 6 h): not detected
Decomposition efficiency: ratio of each glycoside/aglycon within its isoflavone family (Crude diglycosidase; concentrated soybean protein, substrate concentration 2%, heat treatment of enzyme yes, reaction time 6 h): 51.6%
Decomposition efficiency: ratio of each glycoside/aglycon within its isoflavone family (Crude diglycosidase; concentrated soybean protein, substrate concentration 5%, heat treatment of enzyme no, reaction time 0 h): 51.2%
Decomposition efficiency: ratio of each glycoside/aglycon within its isoflavone family (Crude diglycosidase; concentrated soybean protein, substrate concentration 5%, heat treatment of enzyme no, reaction time 1 h): not detected
Decomposition efficiency: ratio of each glycoside/aglycon within its isoflavone family (Crude diglycosidase; concentrated soybean protein, substrate concentration 5%, heat treatment of enzyme no, reaction time 3 h): not detected
Decomposition efficiency: ratio of each glycoside/aglycon within its isoflavone family (Crude diglycosidase; concentrated soybean protein, substrate concentration 5%, heat treatment of enzyme no, reaction time 6 h): not detected
Decomposition efficiency: ratio of each glycoside/aglycon within its isoflavone family (Crude diglycosidase; concentrated soybean protein, substrate concentration 5%, heat treatment of enzyme yes, reaction time 6 h): 52.2%
Decomposition efficiency: ratio of each glycoside/aglycon within its isoflavone family (Crude diglycosidase; concentrated soybean protein, substrate concentration 10%, heat treatment of enzyme no, reaction time 0 h): 50.6%
Decomposition efficiency: ratio of each glycoside/aglycon within its isoflavone family (Crude diglycosidase; concentrated soybean protein, substrate concentration 10%, heat treatment of enzyme no, reaction time 1 h): 1.3%
Decomposition efficiency: ratio of each glycoside/aglycon within its isoflavone family (Crude diglycosidase; concentrated soybean protein, substrate concentration 10%, heat treatment of enzyme no, reaction time 3 h): not detected
Decomposition efficiency: ratio of each glycoside/aglycon within its isoflavone family (Crude diglycosidase; concentrated soybean protein, substrate concentration 10%, heat treatment of enzyme no, reaction time 6 h): not detected
Decomposition efficiency: ratio of each glycoside/aglycon within its isoflavone family (Crude diglycosidase; concentrated soybean protein, substrate concentration 10%, heat treatment of enzyme yes, reaction time 6 h): 50.9%
Decomposition efficiency: ratio of each glycoside/aglycon within its isoflavone family (Crude diglycosidase; concentrated soybean protein, substrate concentration 20%, heat treatment of enzyme no, reaction time 0 h): 50.4%
Decomposition efficiency: ratio of each glycoside/aglycon within its isoflavone family (Crude diglycosidase; concentrated soybean protein, substrate concentration 20%, heat treatment of enzyme no, reaction time 1 h): 6.0%
Decomposition efficiency: ratio of each glycoside/aglycon within its isoflavone family (Crude diglycosidase; concentrated soybean protein, substrate concentration 20%, heat treatment of enzyme no, reaction time 3 h): not detected
Decomposition efficiency: ratio of each glycoside/aglycon within its isoflavone family (Crude diglycosidase; concentrated soybean protein, substrate concentration 20%, heat treatment of enzyme no, reaction time 6 h): not detected
Decomposition efficiency: ratio of each glycoside/aglycon within its isoflavone family (Crude diglycosidase; concentrated soybean protein, substrate concentration 20%, heat treatment of enzyme yes, reaction time 6 h): 50.8%
Decomposition efficiency: ratio of each glycoside/aglycon within its isoflavone family (Crude diglycosidase; concentrated soybean protein, substrate concentration 30%, heat treatment of enzyme no, reaction time 0 h): 54.6%
Decomposition efficiency: ratio of each glycoside/aglycon within its isoflavone family (Crude diglycosidase; concentrated soybean protein, substrate concentration 30%, heat treatment of enzyme no, reaction time 1 h): 2.8%
Decomposition efficiency: ratio of each glycoside/aglycon within its isoflavone family (Crude diglycosidase; concentrated soybean protein, substrate concentration 30%, heat treatment of enzyme no, reaction time 3 h): not detected
Decomposition efficiency: ratio of each glycoside/aglycon within its isoflavone family (Crude diglycosidase; concentrated soybean protein, substrate concentration 30%, heat treatment of enzyme no, reaction time 6 h): not detected
Decomposition efficiency: ratio of each glycoside/aglycon within its isoflavone family (Crude diglycosidase; concentrated soybean protein, substrate concentration 30%, heat treatment of enzyme yes, reaction time 6 h): 55.6%
Decomposition efficiency: ratio of each glycoside/aglycon within its isoflavone family (Crude diglycosidase; roasted soy flour, substrate concentration 2%, heat treatment of enzyme no, reaction time 0 h): 33.2%
Decomposition efficiency: ratio of each glycoside/aglycon within its isoflavone family (Crude diglycosidase; roasted soy flour, substrate concentration 2%, heat treatment of enzyme no, reaction time 1 h): not detected
Decomposition efficiency: ratio of each glycoside/aglycon within its isoflavone family (Crude diglycosidase; roasted soy flour, substrate concentration 2%, heat treatment of enzyme no, reaction time 3 h): not detected
Decomposition efficiency: ratio of each glycoside/aglycon within its isoflavone family (Crude diglycosidase; roasted soy flour, substrate concentration 2%, heat treatment of enzyme no, reaction time 6 h): not detected
Decomposition efficiency: ratio of each glycoside/aglycon within its isoflavone family (Crude diglycosidase; roasted soy flour, substrate concentration 2%, heat treatment of enzyme yes, reaction time 6 h): 48.4%
Decomposition efficiency: ratio of each glycoside/aglycon within its isoflavone family (Crude diglycosidase; roasted soy flour, substrate concentration 5%, heat treatment of enzyme no, reaction time 0 h): 47.8%
Decomposition efficiency: ratio of each glycoside/aglycon within its isoflavone family (Crude diglycosidase; roasted soy flour, substrate concentration 5%, heat treatment of enzyme no, reaction time 1 h): not detected
Decomposition efficiency: ratio of each glycoside/aglycon within its isoflavone family (Crude diglycosidase; roasted soy flour, substrate concentration 5%, heat treatment of enzyme no, reaction time 3 h): not detected
Decomposition efficiency: ratio of each glycoside/aglycon within its isoflavone family (Crude diglycosidase; roasted soy flour, substrate concentration 5%, heat treatment of enzyme no, reaction time 6 h): not detected
Decomposition efficiency: ratio of each glycoside/aglycon within its isoflavone family (Crude diglycosidase; roasted soy flour, substrate concentration 5%, heat treatment of enzyme yes, reaction time 6 h): 47.8%
Decomposition efficiency: ratio of each glycoside/aglycon within its isoflavone family (Crude diglycosidase; roasted soy flour, substrate concentration 10%, heat treatment of enzyme no, reaction time 0 h): 59.5%
Decomposition efficiency: ratio of each glycoside/aglycon within its isoflavone family (Crude diglycosidase; roasted soy flour, substrate concentration 10%, heat treatment of enzyme no, reaction time 1 h): not detected
Decomposition efficiency: ratio of each glycoside/aglycon within its isoflavone family (Crude diglycosidase; roasted soy flour, substrate concentration 10%, heat treatment of enzyme no, reaction time 3 h): not detected
Decomposition efficiency: ratio of each glycoside/aglycon within its isoflavone family (Crude diglycosidase; roasted soy flour, substrate concentration 10%, heat treatment of enzyme no, reaction time 6 h): not detected
Decomposition efficiency: ratio of each glycoside/aglycon within its isoflavone family (Crude diglycosidase; roasted soy flour, substrate concentration 10%, heat treatment of enzyme yes, reaction time 6 h): 49.5%
Decomposition efficiency: ratio of each glycoside/aglycon within its isoflavone family (Crude diglycosidase; roasted soy flour, substrate concentration 20%, heat treatment of enzyme no, reaction time 0 h): 50.5%
Decomposition efficiency: ratio of each glycoside/aglycon within its isoflavone family (Crude diglycosidase; roasted soy flour, substrate concentration 20%, heat treatment of enzyme no, reaction time 1 h): not detected
Decomposition efficiency: ratio of each glycoside/aglycon within its isoflavone family (Crude diglycosidase; roasted soy flour, substrate concentration 20%, heat treatment of enzyme no, reaction time 3 h): not detected
Decomposition efficiency: ratio of each glycoside/aglycon within its isoflavone family (Crude diglycosidase; roasted soy flour, substrate concentration 20%, heat treatment of enzyme no, reaction time 6 h): not detected
Decomposition efficiency: ratio of each glycoside/aglycon within its isoflavone family (Crude diglycosidase; roasted soy flour, substrate concentration 20%, heat treatment of enzyme yes, reaction time 6 h): 49.5%
Decomposition efficiency: ratio of each glycoside/aglycon within its isoflavone family (Crude diglycosidase; roasted soy flour, substrate concentration 30%, heat treatment of enzyme no, reaction time 0 h): 49.4%
Decomposition efficiency: ratio of each glycoside/aglycon within its isoflavone family (Crude diglycosidase; roasted soy flour, substrate concentration 30%, heat treatment of enzyme no, reaction time 1 h): 5.7%
Decomposition efficiency: ratio of each glycoside/aglycon within its isoflavone family (Crude diglycosidase; roasted soy flour, substrate concentration 30%, heat treatment of enzyme no, reaction time 3 h): 9.6%
Decomposition efficiency: ratio of each glycoside/aglycon within its isoflavone family (Crude diglycosidase; roasted soy flour, substrate concentration 30%, heat treatment of enzyme no, reaction time 6 h): 2.0%
Decomposition efficiency: ratio of each glycoside/aglycon within its isoflavone family (Crude diglycosidase; roasted soy flour, substrate concentration 30%, heat treatment of enzyme yes, reaction time 6 h): 50.1%
Decomposition efficiency: ratio of each glycoside/aglycon within its isoflavone family (Crude diglycosidase; soymilk, substrate concentration 2%, heat treatment of enzyme no, reaction time 0 h): 54.5%
Decomposition efficiency: ratio of each glycoside/aglycon within its isoflavone family (Crude diglycosidase; soymilk, substrate concentration 2%, heat treatment of enzyme no, reaction time 1 h): not detected
Decomposition efficiency: ratio of each glycoside/aglycon within its isoflavone family (Crude diglycosidase; soymilk, substrate concentration 2%, heat treatment of enzyme no, reaction time 3 h): not detected
Decomposition efficiency: ratio of each glycoside/aglycon within its isoflavone family (Crude diglycosidase; soymilk, substrate concentration 2%, heat treatment of enzyme no, reaction time 6 h): not detected
Decomposition efficiency: ratio of each glycoside/aglycon within its isoflavone family (Crude diglycosidase; soymilk, substrate concentration 2%, heat treatment of enzyme yes, reaction time 6 h): 38.0%
Decomposition efficiency: ratio of each glycoside/aglycon within its isoflavone family (Crude diglycosidase; soymilk, substrate concentration 5%, heat treatment of enzyme no, reaction time 0 h): 31.5%
Decomposition efficiency: ratio of each glycoside/aglycon within its isoflavone family (Crude diglycosidase; soymilk, substrate concentration 5%, heat treatment of enzyme no, reaction time 1 h): not detected
Decomposition efficiency: ratio of each glycoside/aglycon within its isoflavone family (Crude diglycosidase; soymilk, substrate concentration 5%, heat treatment of enzyme no, reaction time 3 h): not detected
Decomposition efficiency: ratio of each glycoside/aglycon within its isoflavone family (Crude diglycosidase; soymilk, substrate concentration 5%, heat treatment of enzyme no, reaction time 6 h): not detected
Decomposition efficiency: ratio of each glycoside/aglycon within its isoflavone family (Crude diglycosidase; soymilk, substrate concentration 5%, heat treatment of enzyme yes, reaction time 6 h): 37.9%
Decomposition efficiency: ratio of each glycoside/aglycon within its isoflavone family (Crude diglycosidase; soymilk, substrate concentration 10%, heat treatment of enzyme no, reaction time 0 h): 32.9%
Decomposition efficiency: ratio of each glycoside/aglycon within its isoflavone family (Crude diglycosidase; soymilk, substrate concentration 10%, heat treatment of enzyme no, reaction time 1 h): not detected
Decomposition efficiency: ratio of each glycoside/aglycon within its isoflavone family (Crude diglycosidase; soymilk, substrate concentration 10%, heat treatment of enzyme no, reaction time 3 h): not detected
Decomposition efficiency: ratio of each glycoside/aglycon within its isoflavone family (Crude diglycosidase; soymilk, substrate concentration 10%, heat treatment of enzyme no, reaction time 6 h): not detected
Decomposition efficiency: ratio of each glycoside/aglycon within its isoflavone family (Crude diglycosidase; soymilk, substrate concentration 10%, heat treatment of enzyme yes, reaction time 6 h): 37.6%
Decomposition efficiency: ratio of each glycoside/aglycon within its isoflavone family (Crude diglycosidase; soymilk, substrate concentration 20%, heat treatment of enzyme no, reaction time 0 h): 33.3%
Decomposition efficiency: ratio of each glycoside/aglycon within its isoflavone family (Crude diglycosidase; soymilk, substrate concentration 20%, heat treatment of enzyme no, reaction time 1 h): not detected
Decomposition efficiency: ratio of each glycoside/aglycon within its isoflavone family (Crude diglycosidase; soymilk, substrate concentration 20%, heat treatment of enzyme no, reaction time 3 h): not detected
Decomposition efficiency: ratio of each glycoside/aglycon within its isoflavone family (Crude diglycosidase; soymilk, substrate concentration 20%, heat treatment of enzyme no, reaction time 6 h): not detected
Decomposition efficiency: ratio of each glycoside/aglycon within its isoflavone family (Crude diglycosidase; soymilk, substrate concentration 20%, heat treatment of enzyme yes, reaction time 6 h): 38.6%
Decomposition efficiency: ratio of each glycoside/aglycon within its isoflavone family (Crude diglycosidase; soymilk, substrate concentration 30%, heat treatment of enzyme no, reaction time 0 h): 33.6%
Decomposition efficiency: ratio of each glycoside/aglycon within its isoflavone family (Crude diglycosidase; soymilk, substrate concentration 30%, heat treatment of enzyme no, reaction time 1 h): not detected
Decomposition efficiency: ratio of each glycoside/aglycon within its isoflavone family (Crude diglycosidase; soymilk, substrate concentration 30%, heat treatment of enzyme no, reaction time 3 h): not detected
Decomposition efficiency: ratio of each glycoside/aglycon within its isoflavone family (Crude diglycosidase; soymilk, substrate concentration 30%, heat treatment of enzyme no, reaction time 6 h): not detected
Decomposition efficiency: ratio of each glycoside/aglycon within its isoflavone family (Crude diglycosidase; soymilk, substrate concentration 30%, heat treatment of enzyme yes, reaction time 6 h): 38.6%
Structure (SMILES): O=c1c(-c2ccc(O)cc2)coc2cc(O[C@@H]3O[C@H](CO)[C@@H](O)[C@H](O)[C@H]3O)cc(O)c12 [genistin]
